Assay results taken from patent US7128926B2, “Ester compound and use thereof” (Incorporated Administrative Agency, National Agriculture …, priority 2002, dated 2006).

System: adult males of Pseudococcus cryptus
Assay: Biological assay of attracting activity using Petri dish (Table 1)
Type: in vivo
Method: Biological Assay of Attracting Activity Using Petri Dish […] First, two square filter papers with an area of 1 cm^2 were placed on a Petri dish with a diameter of 90 mm. Thereafter, one paper was impregnated with each of sample solutions (shown in Tables 1 and 2) (100 μl of a stock solution in the case of each fraction shown in Table 1 and a crude extract shown in Table 2, and 10 μl of a stock solution in the case of an acetylated product shown in Table 2), and it was defined as a treated group. The other paper was impregnated with only a solvent (100 μl), and it was defined as a control group. […] The Petri dish was then capped. Approximately 10 to 60 minutes later, when the movement of the males stopped, the presence or absence of attracting activity was confirmed from the ratio of males attracted to each filter paper.

C=C(C)CC(=O)OCC1CC(C(=C)C)C1(C)C (stereo not shown) [formula (I), 3-isopropenyl-2,2-dimethylcyclobutylmethyl 3-methyl-3-butenoate]
attracting activity towards adult males of Pseudococcus cryptus (in words): activity of attracting adult males of Pseudococcus cryptus
